Test results as given in patent US20070004660A1, “Synergistic Modulation of Flt3 Kinase Using Alkylquinolines and Alkylquinazolines” (priority 2005, published 2007).

test system: MV4-11 cells; assay: Inhibition of MV4-11 cell proliferation (CellTiterGlo, 72 h); type: cell-based; conditions: Homo sapiens; 72 h growth inhibition; uncertainty ±20%

IC50	SMILES
187 nM	O=C1CCCN1CCCOc1ccc2c(C3CCN(C(=O)Nc4cnc(N5CCCC5)nc4)CC3)ncnc2c1 [Example 90, 4-{7-[3-(2-Oxo-pyrrolidin-1-yl)-propoxy]-quinazolin-4-yl}-piperidine-1-carboxylic acid (2-pyrrolidin-1-yl-pyrimidin-5-yl)-amide]
98 nM	O=C(Nc1ccc(N2CCOCC2)nc1)N1CCC(c2ncnc3cc(OCCN4CCOC4=O)ccc23)CC1 [Example 91, 4-{7-[2-(2-Oxo-oxazolidin-3-yl)-ethoxy]-quinazolin-4-yl}-piperidine-1-carboxylic acid (6-morpholin-4-yl-pyridin-3-yl)-amide]
21 nM	O=C(Nc1ccc(N2CCCC2)nc1)N1CCC(c2ncnc3cc(OCCN4CCOC4=O)ccc23)CC1 [Example 92, 4-{7-[2-(2-Oxo-oxazolidin-3-yl)-ethoxy]-quinazolin-4-yl}-piperidine-1-carboxylic acid (6-pyrrolidin-1-yl-pyridin-3-yl)-amide]
9 nM	CC(C)Oc1ccc(NC(=O)N2CCC(c3ncnc4cc(OCC5CCN(C)CC5)ccc34)CC2)cc1 [Example 93, 4-[7-(1-Methyl-piperidin-4-ylmethoxy)-quinazolin-4-yl]-piperidine-1-carboxylic acid (4-isopropoxy-phenyl)-amide]
60 nM	CN1CCC(COc2ccc3c(C4CCN(C(=O)Nc5ccc(N6CCOCC6)cc5)CC4)ncnc3c2)CC1 [Example 94, 4-[7-(1-Methyl-piperidin-4-ylmethoxy)-quinazolin-4-yl]-piperidine-1-carboxylic acid (4-morpholin-4-yl-phenyl)-amide]
56 nM	O=C(Nc1ccc(N2CCCC2)nc1)N1CCC(c2ncnc3cc(OCCN4CCOCC4)ccc23)CC1 [Example 95, 4-[7-(2-Morpholin-4-yl-ethoxy)-quinazolin-4-yl]-piperidine-1-carboxylic acid (6-pyrrolidin-1-yl-pyridin-3-yl)-amide]
235 nM	O=C(Nc1ccc(N2CCOCC2)cc1)N1CCC(c2ncnc3cc(OCCN4CCOCC4)ccc23)CC1 [Example 96, 4-[7-(2-Morpholin-4-yl-ethoxy)-quinazolin-4-yl]-piperidine-1-carboxylic acid (4-morpholin-4-yl-phenyl)-amide]
262 nM	CC(=O)N1CCN(CCOc2ccc3c(C4CCN(C(=O)Nc5ccc(N6CCOCC6)cc5)CC4)ncnc3c2)CC1 [Example 97, 4-{7-[2-(4-Acetyl-piperazin-1-yl)-ethoxy]-quinazolin-4-yl}-piperidine-1-carboxylic acid (4-morpholin-4-yl-phenyl)-amide]
277 nM	O=C(Nc1ccc(N2CCOCC2)cc1)N1CCC(c2ncnc3cc(OCCC4CCCCN4)ccc23)CC1 (centres unmarked) [Example 98, 4-[7-(2-Piperidin-2-yl-ethoxy)-quinazolin-4-yl]-piperidine-1-carboxylic acid (4-morpholin-4-yl-phenyl)-amide]
58 nM	CN1CCC(COc2ccc3c(C4CCN(C(=O)Nc5ccc(N6CCCC6)nc5)CC4)ncnc3c2)CC1 [Example 99, 4-[7-(1-Methyl-piperidin-4-ylmethoxy)-quinazolin-4-yl]-piperidine-1-carboxylic acid (6-pyrrolidin-1-yl-pyridin-3-yl)-amide]
36 nM	CC(C)Oc1ccc(NC(=O)N2CCC(c3ncnc4cc(N(C)C)ccc34)CC2)cc1 [Example 100, 4-(7-Dimethylamino-quinazolin-4-yl)-piperidine-1-carboxylic acid (4-isopropoxy-phenyl)-amide]
34 nM	CC(C)Oc1ccc(NC(=O)N2CCC(c3ncnc4ccc(OCCCN5CCCC5=O)cc34)CC2)cc1 [Example 101, 4-{6-[3-(2-Oxo-pyrrolidin-1-yl)-propoxy]-quinazolin-4-yl}-piperidine-1-carboxylic acid (4-isopropoxy-phenyl)-amide]
18 nM	CC(C)Oc1ccc(NC(=O)N2CCC(c3ncnc4cc(NCCCN5CCN(C)CC5)ccc34)CC2)cc1 [Example 102, 4-{7-[3-(4-Methyl-piperazin-1-yl)-propylamino]-quinazolin-4-yl}-piperidine-1-carboxylic acid (4-isopropoxy-phenyl)-amide]
25 nM	CC(C)Oc1ccc(NC(=O)N2CCC(c3ncnc4cc(N5CCN(C)CC5)ccc34)CC2)cc1 [Example 103, 4-[7-(4-Methyl-piperazin-1-yl)-quinazolin-4-yl]-piperidine-1-carboxylic acid (4-isopropoxy-phenyl)-amide]
12 nM	CN1CCN(CCCOc2ccc3c(C4CCN(C(=O)Nc5ccc(N6CCCC6)nc5)CC4)ncnc3c2)CC1 [Example 104, 4-{7-[3-(4-Methyl-piperazin-1-yl)-propoxy]-quinazolin-4-yl}-piperidine-1-carboxylic acid (6-pyrrolidin-1-yl-pyridin-3-yl)-amide]
91 nM	CN1CCN(CCCOc2ccc3c(C4CCN(C(=O)Nc5cnc(N6CCCC6)nc5)CC4)ncnc3c2)CC1 [Example 105, 4-{7-[3-(4-Methyl-piperazin-1-yl)-propoxy]-quinazolin-4-yl}-piperidine-1-carboxylic acid (2-pyrrolidin-1-yl-pyrimidin-5-yl)-amide]
173 nM	CN1CCC(COc2ccc3c(C4CCN(C(=O)Nc5ccc(N6CCOCC6)nc5)CC4)ncnc3c2)CC1 [Example 108, 4-[7-(1-Methyl-piperidin-4-ylmethoxy)-quinazolin-4-yl]-piperidine-1-carboxylic acid (6-morpholin-4-yl-pyridin-3-yl)-amide]
18 nM	CN1CCC(COc2ccc3c(C4CCN(C(=O)Nc5ccc(N6CCCC6)cc5)CC4)ncnc3c2)CC1 [Example 109, 4-[7-(1-Methyl-piperidin-4-ylmethoxy)-quinazolin-4-yl]-piperidine-1-carboxylic acid (4-pyrrolidin-1-yl-phenyl)-amide]
98 nM	O=C(NCCCOc1ccc2c(C3CCN(C(=O)Nc4ccc(N5CCCC5)nc4)CC3)ncnc2c1)N1CCOCC1 [Example 112, Morpholine-4-carboxylic acid (3-{4-[1-(6-pyrrolidin-1-yl-pyridin-3-ylcarbamoyl)-piperidin-4-yl]-quinazolin-7-yloxy}-propyl)-amide]
104 nM	CCN1CCN(CCCOc2ccc3c(C4CCN(C(=O)Nc5ccc(N6CCOCC6)cc5)CC4)ncnc3c2)CC1 [Example 115, 4-{7-[3-(4-Ethyl-piperazin-1-yl)-propoxy]-quinazolin-4-yl}-piperidine-1-carboxylic acid (4-morpholin-4-yl-phenyl)-amide]
139 nM	O=C(Nc1ccc(N2CCOCC2)cc1)N1CCC(c2ncnc3cc(OCCCN4CCN(CCO)CC4)ccc23)CC1 [Example 116, 4-(7-{3-[4-(2-Hydroxy-ethyl)-piperazin-1-yl]-propoxy}-quinazolin-4-yl)-piperidine-1-carboxylic acid (4-morpholin-4-yl-phenyl)-amide]
171 nM	CC(=O)N1CCN(CCCOc2ccc3c(C4CCN(C(=O)Nc5ccc(N6CCOCC6)cc5)CC4)ncnc3c2)CC1 [Example 117, 4-{7-[3-(4-Acetyl-piperazin-1-yl)-propoxy]-quinazolin-4-yl}-piperidine-1-carboxylic acid (4-morpholin-4-yl-phenyl)-amide]

SMILES	IC50
CN1CCC(COc2ccc3c(C4CCN(C(=O)Nc5ccc(OC6CCC6)nc5)CC4)ncnc3c2)CC1 [Example 107, 4-[7-(1-Methyl-piperidin-4-ylmethoxy)-quinazolin-4-yl]-piperidine-1-carboxylic acid (6-cyclobutoxy-pyridin-3-yl)-amide]	23 nM
